Here are results for 24 molecules from patent publication US9926321B2, “Hsp90 inhibitors” (Sloan-Kettering Institute for Cancer Research, priority 2011, dated 2018).

One test deals with Hsp90 (SKBr3 lysate). Put plainly: Hsp90 binding assay (fluorescence polarization, cy3B-GM displacement), human cancer cell lysate. The conditions noted are these: lysate not given. On the procedure:
(§1) For the binding studies, fluorescence polarization (FP) assays w-re performed similarly as was previously reported [Du et al. (2007) “High-throughput screening fluorescence polarization assay for tumor-specific Hsp90” J. Biomol. Screen 12:915-924]. Briefly, FP measurements were performed on an Analyst GT instrument (Molecular Devices, Sunnyvale, Calif.). Measurements were taken in black 96-well microtiter plates (Corning #3650) where both the excitation and the emission occurred from the top of the well. A stock of 10 μM cy3B-GM was prepared in DMSO and diluted with HFB buffer (20 mM Hepes (K), pH 7.3, 50 mM KCl, 2 mM DTT, 5 mM MgCl2, 20 mM Na2MoO4, and 0.01% NP40 with 0.1 mg/mL BGG). The test compounds were dissolved in DMSO and added at several concentrations to the HFB assay buffer containing both 6 nM cy3B-GM and transgenic mouse brain lysate (6 μg JNPL3 lysate) or human cancer cell lysate (3 μg SKBr3 lysate) in a final volume of 100 μL. Drugs were added to triplicate wells. Free cy3B-GM (6 nM cy3B-GM), bound cy3B-GM (6 nM cy3B-GM+lysate, as indicated above) and buffer only containing wells (background) were included as controls in each plate. Plates were incubated on a shake at 4° C., and polarization values measured at 24 h. Percentage inhibition was calculated as follows: (% Control)=100−((mPc−mPf)/(mPb−mPf))×100, where mPc is the recorded mP from compound wells, mPf is the average recorded mP from cy3B-GM-only wells, and mPb is the average recorded mP from wells containing both cy3B-GM and lysate, and plotted against values of competitor concentrations. The inhibitor concentration at which 50% of bound cy3B-GM was displaced was obtained by fitting the data using a nonlinear regression analysis as implemented in Prism 4.0 (GraphPad Software).
In general terms: Fluorescence polarisation rises when a labelled molecule tumbles more slowly, as on binding a larger partner.

A further test relates to Hsp90. The description is as above. The note with it: fluorescence polarization, cy3B-GM displacement; the table does not say which lysate (SKBr3 or JNPL3). How it is done: as §1

SMILES strings stand for the structures.

Broadly, the IC50 is the concentration that gives 50% inhibition. A low value points to inhibition by little substance. As to `CC(C)(C)S(=O)(=O)NCCn1c(Sc2cc3c(cc2I)OCO3)nc2c(N)ncnc21` [Compound 1A-11, 2-Methyl-propane-2-sulfonic acid {2-[6-amino-8-(6-iodo-benzo[1,3]dioxol-5-ylsulfanyl)-purin-9-yl]-ethyl}-amide], the “Hsp90 binding affinity (in words, referring to Table 12)” value (“Hsp90 binding affinity” for short) with Hsp90 (SKBr3 lysate) is recorded as “high level of binding affinity”. In the test with Hsp90, this molecule displayed an IC50 of 0.0715 µM.

`CC(C)CS(=O)(=O)NCCCn1c(Sc2cc3c(cc2I)OCO3)nc2c(N)ncnc21` [Compound 1A-27, 2-Methyl-propane-1-sulfonic acid {3-[6-amino-8-(6-iodo-benzo[1,3]dioxol-5-ylsulfanyl)-purin-9-yl]-propyl}-amide] displayed an IC50 with Hsp90 of 0.064 µM. That is a double-digit nanomolar value.

Consider `CS(=O)(=O)NCCCn1c(Sc2cc3c(cc2I)OCO3)nc2c(N)ncnc21` [Compound 1A-24, N-{3-[6-Amino-8-(6-iodo-benzo[1,3]dioxol-5-ylsulfanyl)-purin-9-yl]-propyl}-methanesulfonamide], for which the “Hsp90 binding affinity” value in the test on Hsp90 (SKBr3 lysate) was “high level of binding affinity”. For the same molecule, in the test with Hsp90, the IC50 stood at 0.0115 µM.

Consider `CC(C)(C)S(=O)(=O)NCCn1c(Sc2cc3c(cc2I)CCC3)nc2c(N)ncnc21` [Compound 3A-11, 2-Methyl-propane-2-sulfonic acid {2-[6-amino-8-(6-iodo-indan-5-ylsulfanyl)-purin-9-yl]-ethyl}-amide], for which the “Hsp90 binding affinity” value in the test on Hsp90 (SKBr3 lysate) is “high level of binding affinity”. Also, the half-inhibitory concentration (IC50) in the test on Hsp90 was determined as 0.068 µM.

As for `CC(C)(C)S(=O)(=O)NCCn1c(Sc2cc3c(cc2I)CCO3)nc2c(N)ncnc21` [Compound 2A-11, 2-Methyl-propane-2-sulfonic acid {2-[6-amino-8-(5-iodo-2,3-dihydro-benzofuran-6-ylsulfanyl)-purin-9-yl]-ethyl}-amide], the “Hsp90 binding affinity” value with Hsp90 (SKBr3 lysate) was “high level of binding affinity”. The molecule further gave an IC50 in the test on Hsp90 of 0.051 µM.

`CC(=O)OC(C)(C)C(=O)NCCCn1c(Sc2cc3c(cc2I)OCO3)nc2c(N)ncnc21` [Compound 1A-47, 1-((3-(6-Amino-8-((6-iodobenzo[d][1,3]dioxol-5-yl)thio)-9H-purin-9-yl)propyl)amino)-2-methyl-1-oxopropan-2-yl acetate] registered an IC50 in the test with Hsp90 of 0.0165 µM.

On to `CC(C)(C)[S+]([O-])NCCCn1c(Sc2cc3c(cc2I)CCC3)nc2c(N)ncnc21` (stereo not drawn) [Compound 3A-26, 2-Methyl-propane-2-sulfinic acid {3-[6-amino-8-(6-iodo-indan-5-ylsulfanyl)-purin-9-yl]-propyl}-amide], for which the “Hsp90 binding affinity” value in the test on Hsp90 (SKBr3 lysate) is reported as “high level of binding affinity”. The IC50 with Hsp90 came out at 0.0201 µM.

With `CC(C)(C)[S+]([O-])NCCn1c(Sc2cc3c(cc2I)CCO3)nc2c(N)ncnc21` (stereo not drawn) [Compound 2A-12, 2-Methyl-propane-2-sulfinic acid {2-[6-amino-8-(5-iodo-2,3-dihydro-benzofuran-6-ylsulfanyl)-purin-9-yl]-ethyl}-amide], the “Hsp90 binding affinity” value with Hsp90 (SKBr3 lysate) was “high level of binding affinity”. In addition, in the test with Hsp90, the IC50 came to 0.068 µM.

`CC(C)C(=O)NCCCn1c(Sc2cc3c(cc2I)OCO3)nc2c(N)ncnc21` [Compound 1A-44, N-(3-(6-Amino-8-((6-iodobenzo[d][1,3]dioxol-5-yl)thio)-9H-purin-9-yl)propyl)isobutyramide] showed an IC50 with Hsp90 of 0.068 µM. In other words, the double-digit nanomolar range.

Take `Nc1ncnc2c1nc(Sc1cc3c(cc1I)CCO3)n2CCCNC(=O)C1CC1` [Compound 2A-45, Cyclopropanecarboxylic acid {3-[6-amino-8-(5-iodo-2,3-dihydro-benzufuran-6-ylsulfanyl)-purin-9-yl]-propyl}-amide]: the “Hsp90 binding affinity” value with Hsp90 (SKBr3 lysate) is given as “high level of binding affinity”. Also, the IC50 with Hsp90 is 0.0118 µM.

Consider `COc1ccc(I)c(Sc2nc3c(N)ncnc3n2CCCNC(=O)C(C)(C)C)c1` [Compound 1A-49, N-(3-(6-amino-8-((2-iodo-5-methoxyphenyl)thio)-9H-purin-9-yl)propyl)pivalamide], for which the IC50 with Hsp90 worked out at 0.0283 µM.

In the case of `CC(C)(C)NS(=O)(=O)CCn1c(Sc2cc3c(cc2I)OCO3)nc2c(N)ncnc21` [Compound 1A-5, 2-[6-Amino-8-(6-iodo-benzo[1,3]dioxol-5-ylsulfanyl)-purin-9-yl]-ethanesulfonic acid tert-butylamide], the “Hsp90 binding affinity” value in the test on Hsp90 (SKBr3 lysate) is recorded as “high level of binding affinity”. The molecule also had an IC50 in the test with Hsp90 of 0.078 µM.

For `CC(C)(C)[S+]([O-])NCCn1c(Sc2cc3c(cc2I)CCC3)nc2c(N)ncnc21` (stereo not drawn) [Compound 3A-12, 2-Methyl-propane-2-sulfinic acid {2-[6-amino-8-(6-iodo-indan-5-ylsulfanyl)-purin-9-yl]-ethyl}-amide], the “Hsp90 binding affinity” value with Hsp90 (SKBr3 lysate) is recorded as “high level of binding affinity”.

On to `CS(=O)(=O)NCCn1c(Sc2cc3c(cc2I)OCO3)nc2c(N)ncnc21` [Compound 1A-10, N-{2-[6-Amino-8-(6-iodo-benzo[1,3]dioxol-5-ylsulfanyl)-purin-9-yl]-ethyl}-methanesulfonamide], for which, in the test with Hsp90 (SKBr3 lysate), the “Hsp90 binding affinity” value is “high level of binding affinity”. Further, the 50% inhibitory concentration (IC50) in the test on Hsp90 was 0.0063 µM.

In the test on Hsp90, `Nc1ncnc2c1nc(Sc1cc3c(cc1I)OCO3)n2CCCNS(=O)(=O)C1CC1` [Compound 1A-28, Cyclopropanesulfonic acid {3-[6-amino-8-(6-iodo-benzo[1,3]dioxol-5-ylsulfanyl)-purin-9-yl]-propyl}-amide] had an IC50 of 0.0197 µM. This lies in the double-digit nanomolar range.

On to `CS(=O)(=O)NCCCn1c(Sc2cc3c(cc2I)CCC3)nc2c(N)ncnc21` [Compound 3A-24, N-{3-[6-Amino-8-(6-iodo-indan-5-ylsulfanyl)-purin-9-yl]-propyl}-methanesulfonamide], for which the “Hsp90 binding affinity” value with Hsp90 (SKBr3 lysate) was “high level of binding affinity”. Besides, the IC50 in the test on Hsp90 worked out at 0.0081 µM.

Molecule `NC(=O)CCCCCn1c(Sc2cc3c(cc2I)OCO3)nc2c(N)ncnc21` [Compound 1A-50, 6-(6-amino-8-((6-iodobenzo[d][1,3]dioxol-5-yl)thio)-9H-purin-9-yl)hexanamide] displayed an IC50 with Hsp90 of 0.0765 µM.

`CC(C)(C)S(=O)(=O)NCCCn1c(Sc2cc3c(cc2I)OCO3)nc2c(N)ncnc21` [Compound 1A-25, 2-Methyl-propane-2-sulfonic acid {3-[6-amino-8-(6-iodo-benzo[1,3]dioxol-5-ylsulfanyl)-purin-9-yl]-propyl}-amide] came in with an IC50 in the test on Hsp90 of 0.024 µM. Compared with the last molecule, the IC50 is about 3.2-fold lower.

`CC(C)(C)[S+]([O-])NCCCn1c(Sc2cc3c(cc2I)CCO3)nc2c(N)ncnc21` (stereo not drawn) [Compound 2A-26, 2-Methyl-propane-2-sulfinic acid {3-[6-amino-8-(5-iodo-2,3-dihydro-benzofuran-6-ylsulfanyl)-purin-9-yl]-propyl}-amide]: in the test with Hsp90 (SKBr3 lysate), the “Hsp90 binding affinity” value was “high level of binding affinity”. The IC50 in the test with Hsp90 worked out at 0.017 µM.

With `CN(C)c1cc2c(cc1Sc1nc3c(N)ncnc3n1CCCNS(=O)(=O)C1CC1)OCO2` [Compound 1G-28, N-(3-(6-amino-8-((6-(dimethylamino)benzo[d] [1,3]dioxol-5-yl)thio)-9H-purin-9-yl)propyl)cyclopropane-sulfonamide], the “Hsp90 binding affinity” value with Hsp90 (SKBr3 lysate) was “high level of binding affinity”. This molecule also registered an IC50 in the test with Hsp90 of 0.022 µM.

Molecule `CC(C)(C)[S+]([O-])NCCn1c(Cc2cc3c(cc2I)OCO3)nc2c(N)nc(F)nc21` (stereo not drawn) [Compound 4A-12, N-(2-(6-amino-2-fluoro-8-((6-iodobenzo[d][1,3]dioxol-5-yl)methyl)-9H-purin-9-yl)ethyl)-2-methylpropane-2-sulfinamide] had an IC50 in the test with Hsp90 of 0.0296 µM.

For `CC(C)(C)NS(=O)(=O)CCCn1c(Sc2cc3c(cc2I)OCO3)nc2c(N)ncnc21` [Compound 1A-19, 3-[6-Amino-8-(6-iodo-benzo[1,3]dioxol-5-ylsulfanyl)-purin-9-yl]-propane-1-sulfonic acid tert-butylamide], the “Hsp90 binding affinity” value in the test with Hsp90 (SKBr3 lysate) was “high level of binding affinity”. In the test with Hsp90, this molecule had an IC50 of 0.044 µM.

For `C#Cc1cc2c(cc1Sc1nc3c(N)ncnc3n1CCCNS(C)(=O)=O)CCC2` [Compound 3A-43, N-{3-[6-Amino-8-(6-ethynyl-indan-5-ylsulfanyl)-purin-9-yl]-propyl}-methanesulfonamide], in the test on Hsp90 (SKBr3 lysate), the “Hsp90 binding affinity” value is “high level of binding affinity”. Moreover, the IC50 in the test on Hsp90 amounted to 0.0374 µM.

With `CS(=O)(=O)NCCn1c(Sc2cc3c(cc2I)CCC3)nc2c(N)ncnc21` [Compound 3A-10, N-{2-[6-Amino-8-(6-iodo-indan-5-ylsulfanyl)-purin-9-yl]-ethyl}-methanesulfonamide], in the test on Hsp90 (SKBr3 lysate), the “Hsp90 binding affinity” value is listed as “high level of binding affinity”. Besides, the IC50 in the test with Hsp90 stood at 0.0035 µM.
